± gives the standard deviation of the averaged measurements.
Tested on: HSV-1 K26-GFP infected primary human skin cells
Experiment: % change of HSV-1 GFP signal vs untreated infected cells; higher = less antiviral inhibition
Procedure: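 2D primary donor-derived keratinocytes (read at 20 hpi) and donor-matched dermal fibroblasts (read at 48 hpi) infected with GFP-HSV-1 K26 at MOI 1 and treated 1 h later with compound dilutions. IncuCyte GFP integrated intensity is normalised by subtracting mock-infected wells and dividing by untreated infected wells, shown as % change (-100 = full inhibition).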

[1] = 0.001 µM, cell type: primary keratinocytes, donor: 3, time (h post infection): 20
[2] = 0.001 µM, cell type: primary keratinocytes, donor: 4, time (h post infection): 20
[3] = 0.001 µM, cell type: primary keratinocytes, donor: 5, time (h post infection): 20
[4] = 0.003 µM, cell type: primary dermal fibroblasts, donor: 5, time (h post infection): 48
[5] = 0.003 µM, cell type: primary keratinocytes, donor: 3, time (h post infection): 20
[6] = 0.003 µM, cell type: primary keratinocytes, donor: 4, time (h post infection): 20
[7] = 0.003 µM, cell type: primary keratinocytes, donor: 5, time (h post infection): 20
[8] = 0.0091 µM, cell type: primary dermal fibroblasts, donor: 5, time (h post infection): 48
[9] = 0.0091 µM, cell type: primary keratinocytes, donor: 3, time (h post infection): 20
[10] = 0.0091 µM, cell type: primary keratinocytes, donor: 4, time (h post infection): 20
[11] = 0.0091 µM, cell type: primary keratinocytes, donor: 5, time (h post infection): 20
[12] = 0.0274 µM, cell type: primary dermal fibroblasts, donor: 5, time (h post infection): 48
[13] = 0.0274 µM, cell type: primary keratinocytes, donor: 3, time (h post infection): 20
[14] = 0.0274 µM, cell type: primary keratinocytes, donor: 4, time (h post infection): 20
[15] = 0.0274 µM, cell type: primary keratinocytes, donor: 5, time (h post infection): 20
[16] = 0.0823 µM, cell type: primary dermal fibroblasts, donor: 5, time (h post infection): 48
[17] = 0.0823 µM, cell type: primary keratinocytes, donor: 3, time (h post infection): 20
[18] = 0.0823 µM, cell type: primary keratinocytes, donor: 4, time (h post infection): 20
[19] = 0.0823 µM, cell type: primary keratinocytes, donor: 5, time (h post infection): 20
[20] = 0.2469 µM, cell type: primary dermal fibroblasts, donor: 5, time (h post infection): 48
[21] = 0.2469 µM, cell type: primary keratinocytes, donor: 3, time (h post infection): 20
[22] = 0.2469 µM, cell type: primary keratinocytes, donor: 4, time (h post infection): 20
[23] = 0.2469 µM, cell type: primary keratinocytes, donor: 5, time (h post infection): 20
[24] = 0.7407 µM, cell type: primary dermal fibroblasts, donor: 5, time (h post infection): 48
[25] = 0.7407 µM, cell type: primary keratinocytes, donor: 3, time (h post infection): 20
[26] = 0.7407 µM, cell type: primary keratinocytes, donor: 4, time (h post infection): 20
[27] = 0.7407 µM, cell type: primary keratinocytes, donor: 5, time (h post infection): 20
[28] = 2.2222 µM, cell type: primary dermal fibroblasts, donor: 5, time (h post infection): 48
[29] = 2.2222 µM, cell type: primary keratinocytes, donor: 3, time (h post infection): 20
[30] = 2.2222 µM, cell type: primary keratinocytes, donor: 4, time (h post infection): 20
[31] = 2.2222 µM, cell type: primary keratinocytes, donor: 5, time (h post infection): 20
[32] = 6.6667 µM, cell type: primary dermal fibroblasts, donor: 5, time (h post infection): 48
[33] = 6.6667 µM, cell type: primary keratinocytes, donor: 3, time (h post infection): 20
[34] = 6.6667 µM, cell type: primary keratinocytes, donor: 4, time (h post infection): 20
[35] = 6.6667 µM, cell type: primary keratinocytes, donor: 5, time (h post infection): 20
[36] = 20 µM, cell type: primary dermal fibroblasts, donor: 5, time (h post infection): 48
[37] = 20 µM, cell type: primary keratinocytes, donor: 3, time (h post infection): 20
[38] = 20 µM, cell type: primary keratinocytes, donor: 4, time (h post infection): 20
[39] = 20 µM, cell type: primary keratinocytes, donor: 5, time (h post infection): 20
[40] = 0.001 µM, cell type: primary dermal fibroblasts, donor: 5, time (h post infection): 48

| SMILES | % change of HSV-1 GFP signal [1] [%] | % change of HSV-1 GFP signal [2] [%] | % change of HSV-1 GFP signal [3] [%] | % change of HSV-1 GFP signal [4] [%] | % change of HSV-1 GFP signal [5] [%] | % change of HSV-1 GFP signal [6] [%] | % change of HSV-1 GFP signal [7] [%] | % change of HSV-1 GFP signal [8] [%] | % change of HSV-1 GFP signal [9] [%] | % change of HSV-1 GFP signal [10] [%] | % change of HSV-1 GFP signal [11] [%] | % change of HSV-1 GFP signal [12] [%] | % change of HSV-1 GFP signal [13] [%] | % change of HSV-1 GFP signal [14] [%] | % change of HSV-1 GFP signal [15] [%] | % change of HSV-1 GFP signal [16] [%] | % change of HSV-1 GFP signal [17] [%] | % change of HSV-1 GFP signal [18] [%] | % change of HSV-1 GFP signal [19] [%] | % change of HSV-1 GFP signal [20] [%] | % change of HSV-1 GFP signal [21] [%] | % change of HSV-1 GFP signal [22] [%] | % change of HSV-1 GFP signal [23] [%] | % change of HSV-1 GFP signal [24] [%] | % change of HSV-1 GFP signal [25] [%] | % change of HSV-1 GFP signal [26] [%] | % change of HSV-1 GFP signal [27] [%] | % change of HSV-1 GFP signal [28] [%] | % change of HSV-1 GFP signal [29] [%] | % change of HSV-1 GFP signal [30] [%] | % change of HSV-1 GFP signal [31] [%] | % change of HSV-1 GFP signal [32] [%] | % change of HSV-1 GFP signal [33] [%] | % change of HSV-1 GFP signal [34] [%] | % change of HSV-1 GFP signal [35] [%] | % change of HSV-1 GFP signal [36] [%] | % change of HSV-1 GFP signal [37] [%] | % change of HSV-1 GFP signal [38] [%] | % change of HSV-1 GFP signal [39] [%] | % change of HSV-1 GFP signal [40] [%] |
| --- | --- | --- | --- | --- | --- | --- | --- | --- | --- | --- | --- | --- | --- | --- | --- | --- | --- | --- | --- | --- | --- | --- | --- | --- | --- | --- | --- | --- | --- | --- | --- | --- | --- | --- | --- | --- | --- | --- | --- | --- |
| CC1(C)CC(=O)c2c(C(F)(F)F)nn(-c3ccc(C(N)=O)c(N[C@H]4CC[C@H](O)CC4)c3)c2C1 [SNX-2112] | 9.13 ± 14 | 9.33 ± 10 | 8.24 ± 6.6 | -7.73 ± 2.1 | 13.4 ± 18 | 1.99 ± 7.4 | -1.8 ± 5.6 | -15.6 ± 11 | 18.9 ± 2.4 | -3 ± 12 | -0.244 ± 3.4 | -26.2 ± 14 | 18.3 ± 9.1 | -5.23 ± 6.6 | -15.1 ± 6.1 | -67.5 ± 16 | -27.7 ± 20 | -58 ± 5.7 | -81.52 ± 0.11 | -95.5 ± 4.4 | -93.6 ± 2.1 | -98.23 ± 0.39 | -98.96 ± 0.45 | -98.7 ± 1.3 | -99.06 ± 0.93 | -99.906 ± 0.026 | -99.957 ± 0.0052 | -98.8 ± 1.2 | -99.56 ± 0.19 | -100.1 ± 0.19 | -99.916 ± 0.066 | -99.29 ± 0.7 | -99.47 ± 0.68 | -100.02 ± 0.027 | -99.948 ± 0.011 | -98.8 ± 1.5 | -99.7 ± 0.12 | -100 ± 0.14 | -99.936 ± 0.076 |  |
| C=CC(=O)N1CC/C(=C\c2ccc(F)c([N+](=O)[O-])c2)C(=O)/C(=C/c2ccc(F)c([N+](=O)[O-])c2)C1 [VLX1570] | 3.39 ± 15 | -7.51 ± 14 | 4.93 ± 9.7 | -5.38 ± 5.4 | 0.794 ± 18 | -5.56 ± 13 | 5.79 ± 8 | -8.21 ± 6.5 | 7.81 ± 8.2 | -6.93 ± 9.7 | 3.47 ± 9.8 | -7.07 ± 4.7 | 21.4 ± 38 | -1.76 ± 23 | 7.82 ± 5.7 | -8.61 ± 9 | 8.28 ± 14 | -3.15 ± 15 | 7.36 ± 8.3 | -9.37 ± 10 | 2.87 ± 13 | -3.18 ± 12 | 5.33 ± 7.5 | -7.7 ± 4.3 | 4.02 ± 17 | 6.11 ± 3.7 | 1.2 ± 4.9 | -10.9 ± 3.1 | -1.2 ± 35 | -25 ± 23 | -8.44 ± 7 | -99.906 ± 0.052 | -51.7 ± 25 | -97.4 ± 3.5 | -91.4 ± 11 | -99.87 ± 0.13 | -92.7 ± 6 | -100 ± 0.14 | -99.966 ± 0.047 | 1.14 ± 3.5 |
| O=C(/C=C\n1cnc(-c2cc(C(F)(F)F)cc(C(F)(F)F)c2)n1)NNc1ccccn1 [Verdinexor] | 17.4 ± 44 | -13.1 ± 15 | 6.47 ± 9.6 | -14.5 ± 7.4 | 18.1 ± 37 | -10.8 ± 7 | 3.84 ± 10 | -9.81 ± 1.9 | 8.7 ± 34 | -21.9 ± 34 | 3.12 ± 7.2 | -15.2 ± 7 | 2.9 ± 49 | -29.6 ± 21 | 6.11 ± 5.4 | -14.8 ± 4.2 | 12.9 ± 26 | -15.4 ± 5.8 | 10.5 ± 14 | -16.9 ± 4.9 | 9.98 ± 29 | -22.4 ± 4.3 | 3.84 ± 13 | -28.1 ± 3.1 | -22.6 ± 40 | -47.4 ± 5.1 | 8.2 ± 10 | -45.5 ± 2.2 | -68.6 ± 20 | -82.8 ± 1.5 | -36.4 ± 28 | -46.8 ± 3.4 | -87.6 ± 8.3 | -95.8 ± 3.9 | -76.6 ± 2.2 | -46.5 ± 7.1 | -92 ± 6 | -97.6 ± 1.9 | -94.9 ± 2.6 | -15.5 ± 10 |
